We go through two compounds from patent US20080249072A1, “Use of Low Dose Chemically Modified Tetracylines to Reduce Inflammatory Mediators” (priority 2005, published 2008).

Holding throughout (type): cell-based
Assay [1] concerns Macrophage Chemotactic Protein-1 (MCP-1). The assay is described as follows: MCP-1 production by human monocytes/macrophages stimulated by CRP/Oxid. LDL complex (ELISA). Here is the method: (§1) Experiments were conducted to compare the efficacy of two tetracycline compounds, doxycycline and CMT-3, on reducing the production of inflammatory mediators, TNF-α, IL-6 and MCP-1 produced by monocytes/macrophages. Doxycycline is a well known tetracycline antibiotic. CMT-3 is a non-antibacterial 4-dedimethylamino derivative of sancycline. See above. The experiments utilized a cell culture stimulated by biologic factors that cause inflammation, such as the inflammation seen in, for example, coronary and cerebro-vascular disease. Units of human blood were obtained and peripheral blood monocytes were separated by Ficoll-Hypaque gradient centrifugation. Viable human monocytes/macrophages were incubated in cell culture under standard sterile conditions on plastic in RPMI media at 37° C. for 18 hours. The monocytes/macrophages were incubated under the following experimental conditions: • (i) cells alone; • (ii) cells stimulated by c-reactive protein (CRP)/Oxidized LDL cholesterol complex (CRP/Oxid. LDL complex), no tetracycline present; • (iii) cells stimulated by CRP/Oxid. LDL complex with doxycycline at concentrations of 0.7 μg/ml, 5.0 μg/ml and 10.0 μg/ml; and. • (iv) cells stimulated by CRP/Oxid. LDL complex with CMT-3 at concentrations of 0.5 μg/ml, 1.5 μg/ml and 5.0 μg/ml. CRP/Oxid. LDL complex stimulates monocytes/macrophages to secrete excessive levels of cytokines (e.g. IL-1, IL-6, TNF-α, and MCP-1). Excessive levels of cytokines result in the rupture of atheroscleromatus plaques lining coronary and cerebral arteries causing thrombosis, heart attack and stroke. At the end of an 18 hour incubation, the conditioned media were collected and analyzed by ELISA for inflammatory mediators IL-6, TNF-α and MCP-1. The results are described in examples 1-3.

Assay [2] has as its system Tumor Necrosis Factor-α (TNF-α). The assay is described as follows: TNF-α production by human monocytes/macrophages stimulated by CRP/Oxid. LDL complex (ELISA). Here is the method:
as §1
On the technique in general: In an ELISA, binding on a coated surface is turned into a signal by an enzyme label.

In assay [3] the test system is Interleukin-6 (IL-6). The assay is described as follows: IL-6 production by human monocytes/macrophages stimulated by CRP/Oxid. LDL complex (ELISA). Here is the method: as §1
The mark [4] stands for this setting: highest concentration, 5.0 μg/ml.
Where [5] appears, read: all three concentrations tested (0.5, 1.5 and 5.0 μg/ml).

SMILES strings stand for the structures.

The term inhibition denotes the relative decrease from the control value, in per cent. Regarding `C[C@H]1c2cccc(O)c2C(=O)C2=C(O)[C@]3(O)C(=O)C(C(N)=O)=C(O)[C@@H](N(C)C)[C@@H]3[C@@H](O)[C@@H]21` [doxycycline, reference compound], the “inhibition of MCP-1 production” value in assay [1] (0.5 μg/ml) and in assay [1] (1.5 μg/ml) was “did not inhibit” throughout. Besides, the inhibition at 5 µg/mL in assay [1] (Homo sapiens, Macrophage, 5.0 μg/ml, read-out: inhibition of production (printed TNF-α, in MCP-1 example)) is roughly 68%; in assay [2] (Homo sapiens, 5.0 μg/ml, 18 hour incubation), roughly 37%. Further, in assay [2] (10.0 μg/ml, 18 hour incubation), the “reduction of TNF-α production” value is listed as “about 94%”. The same compound showed an inhibition at 0.7 µg/mL in assay [2] (Homo sapiens, 0.7 μg/ml, 18 hour incubation) of roughly 14%.

On to `NC(=O)C1=C(O)C[C@@H]2C[C@@H]3Cc4cccc(O)c4C(=O)C3=C(O)[C@]2(O)C1=O` [CMT-3, 6-demethyl-6-deoxy-4-dedimethylaminotetracycline], for which, in assay [1] (1.5 μg/ml versus 0.5 μg/ml), the “MCP-1 production at 1.5 μg/ml higher than at 0.5 μg/ml” value turned out to be 16%. Further, the “effectiveness in reducing MCP-1 among concentrations tested” value in assay [1] (setting [4]) is recorded as “most effective”. Also, the “IL-6 production at 1.5 μg/ml higher than at 0.5 μg/ml” value in assay [3] (1.5 μg/ml versus 0.5 μg/ml) was determined as 43%. Moreover, the “effect on IL-6 production” value in assay [3] (setting [5]) was “reduced IL-6 production”. The “effectiveness in reducing IL-6 among concentrations tested” value in assay [3] (setting [4]) is reported as “most effective”. Besides, the “TNF-α production at 1.5 μg/ml higher than at 0.5 μg/ml” value in assay [2] (1.5 μg/ml versus 0.5 μg/ml) was “about 50%”. The “effect on TNF-α production” value in assay [2] (setting [5]) is “reduced TNF-α production”. In assay [2] (setting [4]), the “effectiveness in reducing TNF-α among concentrations tested” value is given as “most effective”.
